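Test compounds were applied to cells in 96-well plates for 48 hours at 5 doses. GI50: concentration for 50% inhibition of growth. At the TGI there is no net growth.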
Tests used:
Assay in all cases: NCI-60 cell line screen, 48 h
M19-MEL melanoma = tested on: M19-MEL melanoma
DMS 114 small cell lung = tested on: DMS 114 small cell lung
LXFL 529 NSCLC = tested on: LXFL 529 NSCLC
DLD-1 colon = tested on: DLD-1 colon
PC-3 prostate = tested on: PC-3 prostate
RXF-631 renal = tested on: RXF-631 renal
MDA-N = tested on: MDA-N

With `N#C/C(=C1\SC(N=Nc2ccccc2)C(=O)N1c1ccccc1)c1nc2ccccc2[nH]1` (stereo not drawn) the TGI (M19-MEL melanoma) was > 100 µM, the TGI (DMS 114 small cell lung) was > 100 µM and the TGI (LXFL 529 NSCLC) was > 100 µM. The TGI (DLD-1 colon) was > 100 µM.
For `O=c1c2cccc3cccc(c4n1CCN=4)c32`, the TGI (M19-MEL melanoma) was > 100 µM, the TGI (DMS 114 small cell lung) was > 100 µM and the TGI (LXFL 529 NSCLC) was > 100 µM. The TGI (DLD-1 colon) was > 100 µM.
`COc1ccc(OC)c(-c2cc(-c3ccc(Cl)cc3)nn2-c2ccc(S(=O)(=O)NC(C)=O)cc2)c1` showed a GI50 (PC-3 prostate) of 3.61 µM and a TGI (PC-3 prostate) of 21.9 µM.
Work on `CN1C(=O)N[C@H]2[C@@H]3NC(=O)c4ccc(Br)n4[C@@H]3C[C@]21O` yielded a GI50 (PC-3 prostate) of 0.475 µM and a TGI (PC-3 prostate) of 5.42 µM.
For `CC(C)(C)CC(C)(C)NCc1cc(C(C)(C)C)cc(CNC(C)(C)CC(C)(C)C)c1O`, the GI50 (PC-3 prostate) was 2.86 µM and the TGI (PC-3 prostate) was 12.2 µM.
`COc1cc(-c2nc(-c3nc4ccccc4[nH]3)cc3c2[nH]c2ccccc23)cc(OC)c1OC` was tested, and the GI50 (PC-3 prostate) was 2.64 µM and the TGI (PC-3 prostate) was > 100 µM.
In the case of `O=S1Nc2c(Cl)cc(Cl)c3c(Cl)cc(Cl)c(c23)N1`, the TGI (M19-MEL melanoma) is reported as > 100 µM, the TGI (DMS 114 small cell lung) is reported as > 100 µM and the TGI (LXFL 529 NSCLC) is reported as > 100 µM. The TGI (DLD-1 colon) was 74.8 µM and the TGI (RXF-631 renal) was > 100 µM.
`C=C1CCC2C(C)(COC(=O)CC)C(OC(=O)CC)CCC2(C)C1C/C=C1/C(=O)OCC1OC(=O)CC` (stereo not drawn) gave a GI50 (PC-3 prostate) of 2.17 µM and a TGI (PC-3 prostate) of 4.91 µM.
Work on `COC(=O)c1cc(O)c2c(c1C(=O)OC)C[C@H]1[C@@H]3CC=C4C[C@@H](O)CC[C@]4(C)[C@H]3CC[C@]21C` yielded a GI50 (PC-3 prostate) of 2.51 µM and a TGI (PC-3 prostate) of 13.3 µM.
With `COC(=O)C1[C@H](c2cc(OC)c(OC)c(OC)c2)OC(=O)C1(C(=O)OC)C(=O)c1ccc2c(c1)OCO2` (stereo partly drawn) the TGI (M19-MEL melanoma) was > 100 µM, the TGI (DMS 114 small cell lung) was > 100 µM and the TGI (LXFL 529 NSCLC) was > 100 µM. For the same molecule, the TGI (DLD-1 colon) was > 100 µM.
For `CC1(CCC(=O)OC2CCCCC2)OCCO1`, the TGI (MDA-N) was > 100 µM and the TGI (PC-3 prostate) was > 100 µM.
`FC(F)(F)C1(Br)C(c2ccccc2)=C1c1ccccc1` showed a TGI (M19-MEL melanoma) of 30 µM, a TGI (DMS 114 small cell lung) of 31.4 µM and a TGI (LXFL 529 NSCLC) of 28.1 µM. The TGI (DLD-1 colon) was 43 µM and the TGI (RXF-631 renal) was > 100 µM.
In the case of `COc1cc(Nc2nc3ccccc3cc2C(=O)Nc2ccc(F)c(F)c2)cc(OC)c1OC`, the GI50 (PC-3 prostate) is reported as 2.21 µM and the TGI (PC-3 prostate) is reported as 7.9 µM.
`CCc1cccc(CC)c1NC(=O)C1=C(C)NC(C)=C(C(=O)Nc2c(CC)cccc2CC)C1c1ccc([N+](=O)[O-])cc1` gave a TGI (M19-MEL melanoma) of 69.2 µM, a TGI (DMS 114 small cell lung) of 52.4 µM and a TGI (LXFL 529 NSCLC) of 33.1 µM. For the same molecule, the TGI (DLD-1 colon) was > 100 µM.
In the case of `Cc1cc(N(CCC#N)S(C)(=O)=O)ccc1C=Nc1ccc(C(=O)NN2C(=O)/C(=C/c3ccc(N(CCC#N)CCC#N)cc3C)N=C2c2cc([N+](=O)[O-])ccc2Cl)cc1`, the TGI (M19-MEL melanoma) is reported as > 100 µM, the TGI (DMS 114 small cell lung) is reported as > 100 µM and the TGI (LXFL 529 NSCLC) is reported as > 100 µM. The TGI (DLD-1 colon) was > 100 µM and the TGI (RXF-631 renal) was > 100 µM.
For `O=C(OCc1ncc(-c2ccc(C(F)(F)F)cc2)c(NC2CCCCCC2)n1)c1c(F)c(F)c(F)c(F)c1F`, the GI50 (PC-3 prostate) was 12 µM and the TGI (PC-3 prostate) was 26.7 µM.
In the case of `OCC(O)c1nc2ccc3[nH]ncc3c2c2c1CCCC2` (stereo not drawn), the GI50 (PC-3 prostate) is reported as 1.43 µM and the TGI (PC-3 prostate) is reported as > 50 µM.
In the case of `Cc1nc(N2CCC3(CC2)CO[C@@H](C)[C@H]3N)c(CO)nc1Sc1ccnc(N)c1Cl`, the GI50 (PC-3 prostate) is reported as > 100 µM and the TGI (PC-3 prostate) is reported as > 100 µM.
`COc1cccc(/C=C/C(=O)c2ccc(Cl)cc2Cl)c1` showed a GI50 (PC-3 prostate) of 8.92 µM and a TGI (PC-3 prostate) of 20.9 µM.
For `CCOC(=N)CC(=O)c1ccccc1`, the TGI (M19-MEL melanoma) was > 100 µM, the TGI (DMS 114 small cell lung) was > 100 µM and the TGI (LXFL 529 NSCLC) was > 100 µM. The TGI (DLD-1 colon) was > 100 µM.
Work on `CCCC(CCC)C(=O)OCC1(CO)C/C(=C\c2ccc(F)cc2)C(=O)O1` (stereo not drawn) yielded a GI50 (PC-3 prostate) of 10.4 µM and a TGI (PC-3 prostate) of 25 µM.
With `CC/C(CC(=O)CCC(=O)Nc1ccccc1[N+](=O)[O-])=N/NC(=O)C[n+]1ccccc1` the TGI (M19-MEL melanoma) was > 100 µM, the TGI (LXFL 529 NSCLC) was > 100 µM and the TGI (RXF-631 renal) was > 100 µM.
In the case of `SCCSCCCSCCS`, the TGI (MDA-N) is reported as > 100 µM and the TGI (PC-3 prostate) is reported as > 100 µM.
For `CCOC(=O)C(C)(C)Oc1ccc(/C=C/C(=O)c2ccc(Cl)cc2)cc1`, the TGI (M19-MEL melanoma) was 38.2 µM, the TGI (DMS 114 small cell lung) was 36.8 µM and the TGI (LXFL 529 NSCLC) was 29.2 µM. For the same molecule, the TGI (DLD-1 colon) was 27.9 µM and the TGI (RXF-631 renal) was 38.5 µM.
For `O=Cc1cccc2c1Oc1c(cccc1C(=O)O)S2`, the TGI (MDA-N) was > 100 µM and the TGI (PC-3 prostate) was > 100 µM.
`CCOC(=N)/C(=C1\OC(N)=C(c2ccc(Cl)cc2)C1=O)c1ccc(Cl)cc1` gave a TGI (M19-MEL melanoma) of 34.7 µM, a TGI (DMS 114 small cell lung) of 40.6 µM and a TGI (LXFL 529 NSCLC) of 27.8 µM. For the same molecule, the TGI (DLD-1 colon) was 28.8 µM and the TGI (RXF-631 renal) was 80.4 µM.
In the case of `CN1C(=O)C(=O)c2cc3c(c4c2c1cc1ccccc14)OCO3`, the TGI (M19-MEL melanoma) is reported as > 100 µM, the TGI (DMS 114 small cell lung) is reported as > 100 µM and the TGI (LXFL 529 NSCLC) is reported as > 100 µM. For the same molecule, the TGI (DLD-1 colon) was > 100 µM.
In the case of `O=C1OC(O)C(Oc2c(Cl)cccc2Cl)=C1Cl` (stereo not drawn), the TGI (LXFL 529 NSCLC) is reported as 33.6 µM and the TGI (DLD-1 colon) is reported as 32.1 µM.
In the case of `COc1ccc(/C=N\Nc2ccc([N+](=O)[O-])cn2)cc1OC`, the GI50 (PC-3 prostate) is reported as > 100 µM and the TGI (PC-3 prostate) is reported as > 100 µM.
For `COC(=O)C(Cc1nc2ccccc2[nH]c1=O)C(=O)C(=O)Nc1ccc([N+](=O)[O-])cc1[N+](=O)[O-]` (stereo not drawn), the TGI (M19-MEL melanoma) was 33.9 µM, the TGI (DMS 114 small cell lung) was 35 µM and the TGI (LXFL 529 NSCLC) was 25.5 µM. It also gave a TGI (DLD-1 colon) of 42 µM and a TGI (RXF-631 renal) of 73.1 µM.
For `O=[N+]([O-])C1Cc2ccccc2OC1c1ccccc1` (stereo not drawn), the TGI (M19-MEL melanoma) was > 100 µM, the TGI (LXFL 529 NSCLC) was > 100 µM and the TGI (DLD-1 colon) was > 100 µM. The TGI (RXF-631 renal) was > 100 µM.
For `CCOc1cccc2ccc[n+](CC)c12`, the TGI (M19-MEL melanoma) was > 100 µM, the TGI (DMS 114 small cell lung) was > 100 µM and the TGI (LXFL 529 NSCLC) was > 100 µM. For the same molecule, the TGI (DLD-1 colon) was > 100 µM and the TGI (RXF-631 renal) was > 100 µM.
In the case of `O=C(/C=C/c1ccccc1)n1c(-c2ccc(Cl)cc2)nc2ccccc21`, the GI50 (PC-3 prostate) is reported as 1.91 µM and the TGI (PC-3 prostate) is reported as 6.73 µM.
With `O=C(O)C(Cl)(c1ccccc1)c1ccccc1` the TGI (MDA-N) was > 100 µM and the TGI (PC-3 prostate) was > 100 µM.
With `C/C=C/CC(C)[C@@H](O)[C@H](NC)C(=O)O` (stereo partly drawn) the TGI (M19-MEL melanoma) was > 100 µM, the TGI (DMS 114 small cell lung) was > 100 µM and the TGI (LXFL 529 NSCLC) was > 100 µM. The TGI (DLD-1 colon) was > 100 µM.
For `CC(=O)[CH-]C(=O)c1ccccc1.CC(=O)[CH-]C(=O)c1ccccc1.CCOCC[O-].CCOCC[O-].[Ti+4]`, the GI50 (M19-MEL melanoma) was 18.9 µM, the TGI (M19-MEL melanoma) was 43.4 µM and the GI50 (LXFL 529 NSCLC) was 12.2 µM. It also gave a TGI (LXFL 529 NSCLC) of 29.1 µM.
In the case of `COc1ccc2c(c1)CC[C@H](O)/C2=C/c1cc(OC)c(OC)c(OC)c1`, the GI50 (PC-3 prostate) is reported as 0.0855 µM and the TGI (PC-3 prostate) is reported as > 100 µM.
Molecule `CC(C)(C)C(=O)OC12/C(=N/O)CCCCCC1c1ccccc12` (stereo not drawn) has a TGI (M19-MEL melanoma) of 30.2 µM, a TGI (DMS 114 small cell lung) of 35.4 µM and a TGI (LXFL 529 NSCLC) of 30.3 µM. For the same molecule, the TGI (DLD-1 colon) was 34.6 µM.

Reference: PubChem BioAssay (NCI)
